Test results: patent US20230087994A1, “TARGETED BIFUNCTIONAL DEGRADERS” (YALE UNIVERSITY, priority 2019, published 2023)
Square brackets hold non-standard residues; d marks the D form. Peptide text beside a SMILES is read from it. * marks the point of attachment. Sta = CC(C)C[C@H](N)[C@@H](O)CC(=O)O; Isovaleryl = CC(C)CC(=O)*; Nle = CCCC[C@H](N)C(=O)O

Legend:
HepG2 cells [1] = test: Degradation of α-DNP antibody endocytosed via DNP-AF3 in HepG2 cells (PAGE, 50 kDa/25 kDa band ratio) and effect of protease inhibitors; format: cell-based, human; conditions: for inhibition of degradation of α-DNP antibody, repeat with selected conditions: 80 μM leupeptin, 10 and 100 μM ALLN, 15 μM pepstatin, FIG. 118, leupeptin not significant (p=0.0504); for inhibition of α-DNP antibody degradation, triplicate: 12 hours, FIG. 117; for toxicity to cells: pepstatin 5 μM after 24 hours, AEBSF 100 μM, ALLN 100 μM by 24 hours
Source text: First, reducing conditions were used to visualize antibody degradation via PAGE gel.

HepG2 cells [2] = test: DNP-AF3-mediated endocytosis of fluorescently labeled α-DNP antibody by HepG2 cells (flow cytometry); format: cell-based, human; conditions: 40 nM DNP-AF3, 100 nM antibody; FIG. 106
Method: The intracellular fluorescence of cells that were incubated at 37° C. with both fluorescently labeled α-DNP antibody and DNP-AF3 for a given amount of time was examined. Cells were then washed, removed from the plate with trypsin, and subjected to flow cytometry. Trypsin treatment is expected to cleave ASGPR and surface-bound α-DNP antibody from cells, and therefore the cellular fluorescence observed in these assays is expected to arise only from internalized antibodies.
It was then determined if reagents which inhibit ternary complex formation inhibit endocytosis mediated by DNP-AF3. In order to account for non-specific antibody association with cells, the mean fluorescence intensity of an aliquot of cells which had been treated with α-DNP antibody but not DNP-AF3 was subtracted from each reading. […] In the presence of 2.38 μM (0.1 mg/mL) ASOR, the cell population fluorescence was decreased to 4.66e5 (FIG. 105); at this ASOR concentration, ternary complex formation is decreased by approximately 70%. Because ternary complex is not inhibited completely at this concentration of ASOR, it is expected that productive endocytic events are still taking place.

HepG2 cells [3] = test: MIF-GN3-mediated endocytosis of fluorescently labeled human MIF by HepG2 cells; conditions: for effect of endocytic pathway inhibitors on MIF-GN3-mediated MIF endocytosis: 100 nM MIF, 200 nM MIF-GN3, FIG. 132
Method: Human MIF protein was fluorescently labeled with Alexa 488 NHS ester, then incubated with HepG2 cells in the presence of varying levels of MIF-GN3.
Next, inhibitors of various endocytic pathways were utilized to determine if MIF-GN3 mediates MIF endocytosis in a manner consistent with ASGPR (FIG. 132).

HepG2 cells [4] = test: DNP-GN3-mediated endocytosis of fluorescently labeled α-DNP antibody by adherent HepG2 cells; format: cell-based, human; conditions: DNP-GN3-mediated uptake; FIG. 89
Method: It was next explored whether DNP-GN3 mediates the endocytosis of fluorescently labeled α-DNP antibody.
To explore the cellular mechanism of antibody uptake, cells were treated with chemical inhibitors of several endocytic pathways (FIG. 89).

human MIF = biological target: T1, human MIF (Homo sapiens, UniProt P14174); test: Depletion of human MIF from cell culture supernatant (sandwich ELISA); format: cell-based; set-up: host or cells: exogenous protein added to cell culture; conditions: for depletion of human MIF from cell culture supernatant / depletion of MIF from cell culture supernatant: human MIF 100 nM; for depletion of human MIF from cell culture supernatant: FIG. 128A; for depletion of MIF from cell culture supernatant: MIF-AF2 at 40 nM, 200 nM, and 1 μM, FIG. 129
T1 sequence (P14174 2-115 limits assumed): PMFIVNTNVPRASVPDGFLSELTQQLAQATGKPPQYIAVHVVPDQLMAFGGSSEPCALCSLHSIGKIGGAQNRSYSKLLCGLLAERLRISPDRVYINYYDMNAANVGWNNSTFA
Method: The ability of bifunctional MIF-binding molecules to mediate the depletion of human MIF from cell culture was investigated. In these assays, human MIF was present at a concentration of 100 nM, and a sandwich ELISA assay was utilized to measure the concentration of human MIF remaining in the cell culture supernatant. The closely related bifunctional molecules MIF-GN3, MIF-PEG2-GN3, and MIF-PEG4-GN3 were used, as well as the structurally dissimilar molecule MIF-NVS-PEG3-GN3. […] Based on the ease of its synthesis and its efficacy in this experiment, MIF-GN3 was utilized for further studies. It was next investigated whether the MIF inhibitor 3w mediates MIF depletion from cell culture supernatant. […] When cells were treated with 3w, no depletion of exogenous MIF protein was observed after 24 hours (FIG. 128B).

[5] = single replicate, FIG. 116, leupeptin 20 and 80, E64 50 and 10 μM, antipain 50 and 100 μM, aprotinin 400 or 800 nM, PMSF 100 or 500 μM, AEBSF 10 μM, ALLN 10 μM

CC(C)C[C@H](NC(=O)[C@H]1O[C@@H]1C(=O)O)C(=O)NCCCCN=C(N)N [Compound E64, E64]
inhibition of degradation of α-DNP antibody, repeat with selected conditions (HepG2 cells [1]): inhibited degradation | inhibition of α-DNP antibody degradation, triplicate (HepG2 cells [1]): inhibit α-DNP antibody degradation at all concentrations tested | inhibition of α-DNP antibody degradation, initial screen (HepG2 cells [1]; [5]): effective

O=c1c(-c2ccc(O)cc2)coc2cc(O)cc(O)c12 [genistein, Genistein]
effect of endocytic pathway inhibitors on fluorescence of the cell population (HepG2 cells [2]): did not significantly decrease | toxicity to cells (HepG2 cells [3]; HepG2 cells with MIF and MIF-GN3): toxic to cells

OC[C@H]1O[C@@](CO)(O[C@H]2O[C@H](CO)[C@@H](O)[C@H](O)[C@H]2O)[C@@H](O)[C@@H]1O [sucrose]
effect of endocytic pathway inhibitors on intracellular fluorescence (HepG2 cells [4]): significantly decreased | effect of endocytic pathway inhibitors on MIF-GN3-mediated MIF endocytosis (HepG2 cells [3]): near background levels

CCCC[C@@H](C=O)NC(=O)[C@H](CC(C)C)NC(=O)[C@H](CC(C)C)NC(C)=O [ALLN] (Ac-Leu-Leu-[Nle]-aldehyde)
inhibition of α-DNP antibody degradation, initial screen (HepG2 cells [1]; 100 μM, 12 hour time point): strong inhibition | inhibition of α-DNP antibody degradation, triplicate (HepG2 cells [1]): appeared effective | inhibition of α-DNP antibody degradation, initial screen (HepG2 cells [1]; [5]): not active

Cl.N [ammonium chloride]
effect of endocytic pathway inhibitors on MIF-GN3-mediated MIF endocytosis (HepG2 cells [3]): near background levels

CCN(c1nc(N)c(C(=O)NC(=N)N)nc1Cl)C(C)C [EIPA]
effect of endocytic pathway inhibitors on intracellular fluorescence (HepG2 cells [4]): did not significantly decrease | effect of endocytic pathway inhibitors on MIF-GN3-mediated MIF endocytosis (HepG2 cells [3]): significantly inhibited uptake

CC(=O)NC1C(OCCOCCOCCNC(=O)CCOCC(COCCC(=O)NCCOCCOCCOC2OC(CO)C(O)C(O)C2NC(C)=O)(COCCC(=O)NCCOCCOCCOC2OC(CO)C(O)C(O)C2NC(C)=O)NC(=O)CNC(=O)COCCOCCOCCOCCNC(=O)CCCOc2ccc3nc(-c4cn(-c5ccc(O)c(F)c5)nn4)ccc3c2)OC(CO)C(O)C1O (centres unmarked) [MIF-PEG4-GN3]
depletion of human MIF from cell culture supernatant (human MIF; 24 hours): effective at mediating the depletion of human MIF

CCN(CC)CCCC(C)Nc1ccnc2cc(Cl)ccc12 (centres unmarked) [chloroquine, Chloroquine]
effect of endocytic pathway inhibitors on intracellular fluorescence (HepG2 cells [4]): significantly decreased | effect of endocytic pathway inhibitors on MIF-GN3-mediated MIF endocytosis (HepG2 cells [3]): near background levels

CC(C)CC(=O)N[C@H](C(=O)N[C@H](C(=O)N[C@@H](CC(C)C)[C@@H](O)CC(=O)N[C@@H](C)C(=O)N[C@@H](CC(C)C)[C@@H](O)CC(=O)O)C(C)C)C(C)C [Pepstatin] (Isovaleryl-VV[Sta]A[Sta]-OH)
inhibition of degradation of α-DNP antibody, repeat with selected conditions (HepG2 cells [1]): did not | inhibition of α-DNP antibody degradation, triplicate (HepG2 cells [1]): did not significantly inhibit | toxicity to cells (HepG2 cells [1]): toxic to cells | inhibition of α-DNP antibody degradation, initial screen (HepG2 cells [1]; [5]): not effective

CC(C)C[C@H](NC(=O)[C@@H](O)[C@H](N)Cc1ccccc1)C(=O)O [Bestatin]
inhibition of α-DNP antibody degradation, triplicate (HepG2 cells [1]): did not significantly inhibit | inhibition of α-DNP antibody degradation, initial screen (HepG2 cells [1]; [5]): not effective

CC[C@@]1([C@@H]2O[C@@H]([C@H]3O[C@@](O)(CO)[C@H](C)C[C@@H]3C)C[C@@H]2C)CC[C@H]([C@]2(C)CC[C@]3(C[C@H](O)[C@@H](C)[C@@H]([C@@H](C)[C@@H](OC)[C@H](C)C(=O)O)O3)O2)O1 [monensin, Monensin]
effect of endocytic pathway inhibitors on intracellular fluorescence (HepG2 cells [4]): significantly decreased | effect of endocytic pathway inhibitors on MIF-GN3-mediated MIF endocytosis (HepG2 cells [3]): near background levels

C=C1[C@@H](C)[C@H]2[C@H](Cc3ccccc3)NC(=O)[C@]23[C@H](OC(C)=O)/C=C/[C@@](C)(O)C(=O)[C@@H](C)C/C=C/[C@H]3[C@@H]1O [cytochalasin D]
effect of endocytic pathway inhibitors on intracellular fluorescence (HepG2 cells [4]): did not significantly decrease

Aprotinin
inhibition of α-DNP antibody degradation, triplicate (HepG2 cells [1]): did not significantly inhibit | inhibition of α-DNP antibody degradation, initial screen (HepG2 cells [1]; [5]): not effective

CO/C1=C\C(C)=C\[C@@H](C)[C@@H](O)[C@@H](C)C/C(C)=C/C=C/[C@H](OC)[C@@H]([C@@H](C)[C@@H](O)[C@H](C)[C@@]2(O)C[C@@H](O)[C@H](C)[C@@H](C(C)C)O2)OC1=O [bafilomycin, Bafilomycin]
effect of endocytic pathway inhibitors on intracellular fluorescence (HepG2 cells [4]): significantly decreased | effect of endocytic pathway inhibitors on MIF-GN3-mediated MIF endocytosis (HepG2 cells [3]): near background levels

CC(=O)N[C@@H](CC(C)C)C(=O)N[C@@H](CC(C)C)C(=O)N[C@H](C=O)CCCNC(=N)N [leupeptin, Leupeptin]
inhibition of degradation of α-DNP antibody, repeat with selected conditions (HepG2 cells [1]): inhibited degradation | inhibition of α-DNP antibody degradation, triplicate (HepG2 cells [1]): inhibit α-DNP antibody degradation at all concentrations tested | inhibition of α-DNP antibody degradation, initial screen (HepG2 cells [1]; [5]): effective

O=S(=O)(F)Cc1ccccc1 [PMSF, Phenylmethylsulfonyl fluoride]
inhibition of α-DNP antibody degradation, triplicate (HepG2 cells [1]): did not significantly inhibit | inhibition of α-DNP antibody degradation, initial screen (HepG2 cells [1]; [5]): not effective

O=C(CCOCC(COCCC(=O)NCCOCCOCCOCCOC[C@]12CO[C@H](O1)[C@H](NC(=O)C(F)(F)F)[C@@H](O)[C@H]2O)NC(=O)CCCOc1ccc2nc(-c3cn(-c4ccc(O)c(F)c4)nn3)ccc2c1)NCCOCCOCCOCCOC[C@]12CO[C@H](O1)[C@H](NC(=O)C(F)(F)F)[C@@H](O)[C@H]2O [MIF-AF2]
depletion of MIF from the cell culture supernatant (human MIF; 200 nM or 1 (μM), after 48 hours): ~100% | depletion of MIF from cell culture supernatant (human MIF): effective at depleting MIF

CC(=O)NC1C(OCCOCCOCCNC(=O)CCOCC(COCCC(=O)NCCOCCOCCOC2OC(CO)C(O)C(O)C2NC(C)=O)(COCCC(=O)NCCOCCOCCOC2OC(CO)C(O)C(O)C2NC(C)=O)NC(=O)CNC(=O)COCCOCCNC(=O)CCCOc2ccc3nc(-c4cn(-c5ccc(O)c(F)c5)nn4)ccc3c2)OC(CO)C(O)C1O (centres unmarked) [MIF-PEG2-GN3]
depletion of exogenous MIF protein from supernatant (human MIF; 24 hours, FIG. 128B): mediated MIF depletion across a range of concentrations | depletion of human MIF from cell culture supernatant (human MIF; 24 hours): effective at mediating the depletion of human MIF

C=C1[C@@H](C)[C@H]2[C@H](Cc3ccccc3)NC(=O)[C@]23[C@H](OC(C)=O)/C=C/[C@@](C)(O)C(=O)[C@@H](C)C/C=C/[C@H]3[C@@H]1O [cytochalisin D (CytD)]
effect of endocytic pathway inhibitors on fluorescence of the cell population (HepG2 cells [2]): non-significant decrease

O=C(CCOCC(COCCC(=O)NCCOCCOCCOCCOC[C@]12CO[C@H](O1)[C@H](NC(=O)C(F)(F)F)[C@@H](O)[C@H]2O)(COCCC(=O)NCCOCCOCCOCCOC[C@]12CO[C@H](O1)[C@H](NC(=O)C(F)(F)F)[C@@H](O)[C@H]2O)NC(=O)CCCOc1ccc2nc(-c3cn(-c4ccc(O)c(F)c4)nn3)ccc2c1)NCCOCCOCCOCCOC[C@]12CO[C@H](O1)[C@H](NC(=O)C(F)(F)F)[C@@H](O)[C@H]2O [MIF-AF3]
molar equivalents of MIF protein depleted (human MIF; 40 nM): 2.08 molar equivalents | human MIF protein removed (human MIF; 40 nM (4.0 pmol of molecule)): 8.32 pmol | removal of MIF present in the cell culture supernatant (human MIF; 40 nM (4.0 pmol of molecule)): 83.2%

Cl.NCCc1ccc(S(=O)(=O)F)cc1 [AEBSF, 4-(2-aminoethyl)benzeneulfonyl fluoride hydrochloride]
inhibition of α-DNP antibody degradation, triplicate (HepG2 cells [1]): did not significantly inhibit | toxicity to cells (HepG2 cells [1]): toxic to cells | inhibition of α-DNP antibody degradation, initial screen (HepG2 cells [1]; [5]): not effective

O=C(CCCOc1ccc2nc(-c3cn(-c4ccc(O)c(F)c4)nn3)ccc2c1)NCCOCCC(=O)NCCOCCOCCOCCOC[C@]12CO[C@H](O1)[C@H](NC(=O)C(F)(F)F)[C@@H](O)[C@H]2O [MIF-AF1]
depletion of MIF from cell culture supernatant (human MIF): not effective

CC(=O)NC1C(OCCOCCOCCNC(=O)CCOCC(COCCC(=O)NCCOCCOCCOC2OC(CO)C(O)C(O)C2NC(C)=O)(COCCC(=O)NCCOCCOCCOC2OC(CO)C(O)C(O)C2NC(C)=O)NC(=O)CNC(=O)COCCOCCOCCn2cc(COCCOCCOc3ccc(N4Cc5ccc(O)cc5OC4=O)cc3)nn2)OC(CO)C(O)C1O (centres unmarked) [MIF-NVS-PEG3-GN3]
depletion of human MIF from cell culture supernatant (human MIF; 24 hours): effective at mediating the depletion of human MIF
